Data taken from ChEMBL document CHEMBL5260810, “Inhibition of bromodomain-containing protein 9 for the prevention of epigenetically-defined drug resistance” (Bioorg Med Chem Lett, 2017).

System: OCI-LY19
Test: Cytotoxicity against human OCILY19 cells measured after 8 days
Assay type: functional, cell-based
Conditions: OCI-LY19, 192 h

Compound	IC50 [µM]
C/C=C/Cn1cc(-c2cc(OC)c(C(=O)N3CCOCC3)cc2OC)c2cc(C)[nH]c2c1=O	2
C/C=C/Cn1cc(-c2ccc(C(C)(C)O)cc2OC)c2cc[nH]c2c1=O	14.9

System: LXF-289 cell line
Test: Cytotoxicity against human LXF-289 cell line measured after 8 days
Assay type: functional, cell-based
Conditions: LXF-289, 192 h

Compound	IC50 [µM]
C/C=C/Cn1cc(-c2cc(OC)c(C(=O)N3CCOCC3)cc2OC)c2cc(C)[nH]c2c1=O	2
C/C=C/Cn1cc(-c2ccc(C(C)(C)O)cc2OC)c2cc[nH]c2c1=O	20

System: not listed separately
Test: Cytotoxicity against human MOLM16 cells measured after 8 days
Assay type: functional, cell-based, MOLM-16
Conditions: MOLM16, 192 h

Compound	IC50 [µM]
C/C=C/Cn1cc(-c2cc(OC)c(C(=O)N3CCOCC3)cc2OC)c2cc(C)[nH]c2c1=O	2
C/C=C/Cn1cc(-c2ccc(C(C)(C)O)cc2OC)c2cc[nH]c2c1=O	17.8

System: SW480
Test: Cytotoxicity against human SW480 cells measured after 8 days
Assay type: functional, cell-based
Conditions: SW480, 192 h

Compound	IC50 [µM]
C/C=C/Cn1cc(-c2cc(OC)c(C(=O)N3CCOCC3)cc2OC)c2cc(C)[nH]c2c1=O	2
C/C=C/Cn1cc(-c2ccc(C(C)(C)O)cc2OC)c2cc[nH]c2c1=O	20

System: SU-DHL-1
Test: Cytotoxicity against human SU-DHL-1 cells measured after 8 days
Assay type: functional, cell-based
Conditions: SU-DHL-1, 192 h

Compound	IC50 [µM]
C/C=C/Cn1cc(-c2cc(OC)c(C(=O)N3CCOCC3)cc2OC)c2cc(C)[nH]c2c1=O	2
C/C=C/Cn1cc(-c2ccc(C(C)(C)O)cc2OC)c2cc[nH]c2c1=O	20

System: CW-2
Test: Cytotoxicity against human CW-2 cells measured after 8 days
Assay type: functional, cell-based
Conditions: CW-2, 192 h

Compound	IC50 [µM]
C/C=C/Cn1cc(-c2cc(OC)c(C(=O)N3CCOCC3)cc2OC)c2cc(C)[nH]c2c1=O	2
C/C=C/Cn1cc(-c2ccc(C(C)(C)O)cc2OC)c2cc[nH]c2c1=O	20

System: HCC1806
Test: Cytotoxicity against human HCC1806 cells measured after 8 days
Assay type: functional, cell-based
Conditions: HCC1806, 192 h

Compound	IC50 [µM]
C/C=C/Cn1cc(-c2cc(OC)c(C(=O)N3CCOCC3)cc2OC)c2cc(C)[nH]c2c1=O	2
C/C=C/Cn1cc(-c2ccc(C(C)(C)O)cc2OC)c2cc[nH]c2c1=O	20

Biological target: Cyclin-dependent kinase 5/CDK5 activator 1 (Homo sapiens) (UniProt Q00535+Q15078)
Sequence (Q00535 whole entry): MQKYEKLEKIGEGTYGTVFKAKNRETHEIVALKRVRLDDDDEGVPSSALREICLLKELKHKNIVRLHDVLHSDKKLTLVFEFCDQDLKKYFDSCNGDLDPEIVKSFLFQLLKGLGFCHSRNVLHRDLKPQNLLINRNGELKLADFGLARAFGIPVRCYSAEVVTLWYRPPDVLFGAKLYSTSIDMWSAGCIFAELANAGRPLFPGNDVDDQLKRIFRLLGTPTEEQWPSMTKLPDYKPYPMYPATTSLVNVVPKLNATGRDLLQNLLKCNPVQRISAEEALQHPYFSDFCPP
Sequence (Q15078 99-307 partner limits assumed): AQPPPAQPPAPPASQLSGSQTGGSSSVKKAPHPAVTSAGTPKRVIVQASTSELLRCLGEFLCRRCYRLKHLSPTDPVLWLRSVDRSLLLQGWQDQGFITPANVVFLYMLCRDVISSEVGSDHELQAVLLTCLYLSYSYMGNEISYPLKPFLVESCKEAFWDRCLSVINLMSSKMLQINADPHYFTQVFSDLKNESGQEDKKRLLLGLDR
Test: Inhibition of CDK5/p25 (unknown origin) at 1 uM relative to control
Assay type: protein-complex assay
Conditions: not given

Compound	inhibition [%]
C/C=C/Cn1cc(-c2cc(OC)c(C(=O)N3CCOCC3)cc2OC)c2cc(C)[nH]c2c1=O	0
C/C=C/Cn1cc(-c2ccc(C(C)(C)O)cc2OC)c2cc[nH]c2c1=O	-0.5

Biological target: Glycogen synthase kinase-3 beta (Homo sapiens) (UniProt P49841)
Sequence (P49841 whole entry, looked up): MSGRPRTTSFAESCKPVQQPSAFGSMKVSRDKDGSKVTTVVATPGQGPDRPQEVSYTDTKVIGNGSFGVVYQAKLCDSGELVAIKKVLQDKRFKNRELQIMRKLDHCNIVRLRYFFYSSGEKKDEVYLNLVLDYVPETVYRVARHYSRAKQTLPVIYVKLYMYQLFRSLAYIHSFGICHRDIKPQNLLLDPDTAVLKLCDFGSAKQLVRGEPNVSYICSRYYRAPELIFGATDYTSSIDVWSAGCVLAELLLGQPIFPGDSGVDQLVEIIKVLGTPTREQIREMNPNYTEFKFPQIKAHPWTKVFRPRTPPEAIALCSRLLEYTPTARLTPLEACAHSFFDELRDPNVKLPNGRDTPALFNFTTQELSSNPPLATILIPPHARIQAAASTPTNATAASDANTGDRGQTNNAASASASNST
Test: Inhibition of GSK3beta (unknown origin) at 1 uM relative to control
Conditions: not given

Compound	inhibition [%]
C/C=C/Cn1cc(-c2cc(OC)c(C(=O)N3CCOCC3)cc2OC)c2cc(C)[nH]c2c1=O	2.5
C/C=C/Cn1cc(-c2ccc(C(C)(C)O)cc2OC)c2cc[nH]c2c1=O	3.5

System: Caco-2
Test: Cytotoxicity against human Caco-2 cells measured after 8 days
Assay type: functional, cell-based
Conditions: Caco-2, 192 h

Compound	IC50 [µM]
C/C=C/Cn1cc(-c2cc(OC)c(C(=O)N3CCOCC3)cc2OC)c2cc(C)[nH]c2c1=O	2
C/C=C/Cn1cc(-c2ccc(C(C)(C)O)cc2OC)c2cc[nH]c2c1=O	20

System: NCI-H2228
Test: Cytotoxicity against human NCI-H2228 cells measured after 8 days
Assay type: functional, cell-based
Conditions: NCI-H2228, 192 h

Compound	IC50 [µM]
C/C=C/Cn1cc(-c2cc(OC)c(C(=O)N3CCOCC3)cc2OC)c2cc(C)[nH]c2c1=O	2
C/C=C/Cn1cc(-c2ccc(C(C)(C)O)cc2OC)c2cc[nH]c2c1=O	20

System: not listed separately
Test: Cytotoxicity against human HCC1171 cells measured after 8 days
Assay type: functional, cell-based
Conditions: HCC1171, 192 h

Compound	IC50 [µM]
C/C=C/Cn1cc(-c2cc(OC)c(C(=O)N3CCOCC3)cc2OC)c2cc(C)[nH]c2c1=O	2
C/C=C/Cn1cc(-c2ccc(C(C)(C)O)cc2OC)c2cc[nH]c2c1=O	20

Species: Rattus norvegicus
Test: Displacement of [3H]batrachotoxinin from rat brain sodium voltage gated ion channel site 2 at 10 uM after 60 mins by scintillation counting analysis relative to control
Conditions: not given

Compound	Activity [%]
C/C=C/Cn1cc(-c2cc(OC)c(C(=O)N3CCOCC3)cc2OC)c2cc(C)[nH]c2c1=O	17
C/C=C/Cn1cc(-c2ccc(C(C)(C)O)cc2OC)c2cc[nH]c2c1=O	12

System: CA46
Test: Cytotoxicity against human CA46 cells measured after 8 days
Assay type: functional, cell-based
Conditions: CA46, 192 h

Compound	IC50 [µM]
C/C=C/Cn1cc(-c2cc(OC)c(C(=O)N3CCOCC3)cc2OC)c2cc(C)[nH]c2c1=O	2
C/C=C/Cn1cc(-c2ccc(C(C)(C)O)cc2OC)c2cc[nH]c2c1=O	9.85

System: HCC515
Test: Cytotoxicity against human HCC515 cells measured after 8 days
Assay type: functional, cell-based
Conditions: HCC515, 192 h

Compound	IC50 [µM]
C/C=C/Cn1cc(-c2cc(OC)c(C(=O)N3CCOCC3)cc2OC)c2cc(C)[nH]c2c1=O	2
C/C=C/Cn1cc(-c2ccc(C(C)(C)O)cc2OC)c2cc[nH]c2c1=O	20

Biological target: T1, ATPase family AAA domain-containing protein 2 (Homo sapiens, UniProt Q6PL18)
T1 sequence (Q6PL18 whole entry): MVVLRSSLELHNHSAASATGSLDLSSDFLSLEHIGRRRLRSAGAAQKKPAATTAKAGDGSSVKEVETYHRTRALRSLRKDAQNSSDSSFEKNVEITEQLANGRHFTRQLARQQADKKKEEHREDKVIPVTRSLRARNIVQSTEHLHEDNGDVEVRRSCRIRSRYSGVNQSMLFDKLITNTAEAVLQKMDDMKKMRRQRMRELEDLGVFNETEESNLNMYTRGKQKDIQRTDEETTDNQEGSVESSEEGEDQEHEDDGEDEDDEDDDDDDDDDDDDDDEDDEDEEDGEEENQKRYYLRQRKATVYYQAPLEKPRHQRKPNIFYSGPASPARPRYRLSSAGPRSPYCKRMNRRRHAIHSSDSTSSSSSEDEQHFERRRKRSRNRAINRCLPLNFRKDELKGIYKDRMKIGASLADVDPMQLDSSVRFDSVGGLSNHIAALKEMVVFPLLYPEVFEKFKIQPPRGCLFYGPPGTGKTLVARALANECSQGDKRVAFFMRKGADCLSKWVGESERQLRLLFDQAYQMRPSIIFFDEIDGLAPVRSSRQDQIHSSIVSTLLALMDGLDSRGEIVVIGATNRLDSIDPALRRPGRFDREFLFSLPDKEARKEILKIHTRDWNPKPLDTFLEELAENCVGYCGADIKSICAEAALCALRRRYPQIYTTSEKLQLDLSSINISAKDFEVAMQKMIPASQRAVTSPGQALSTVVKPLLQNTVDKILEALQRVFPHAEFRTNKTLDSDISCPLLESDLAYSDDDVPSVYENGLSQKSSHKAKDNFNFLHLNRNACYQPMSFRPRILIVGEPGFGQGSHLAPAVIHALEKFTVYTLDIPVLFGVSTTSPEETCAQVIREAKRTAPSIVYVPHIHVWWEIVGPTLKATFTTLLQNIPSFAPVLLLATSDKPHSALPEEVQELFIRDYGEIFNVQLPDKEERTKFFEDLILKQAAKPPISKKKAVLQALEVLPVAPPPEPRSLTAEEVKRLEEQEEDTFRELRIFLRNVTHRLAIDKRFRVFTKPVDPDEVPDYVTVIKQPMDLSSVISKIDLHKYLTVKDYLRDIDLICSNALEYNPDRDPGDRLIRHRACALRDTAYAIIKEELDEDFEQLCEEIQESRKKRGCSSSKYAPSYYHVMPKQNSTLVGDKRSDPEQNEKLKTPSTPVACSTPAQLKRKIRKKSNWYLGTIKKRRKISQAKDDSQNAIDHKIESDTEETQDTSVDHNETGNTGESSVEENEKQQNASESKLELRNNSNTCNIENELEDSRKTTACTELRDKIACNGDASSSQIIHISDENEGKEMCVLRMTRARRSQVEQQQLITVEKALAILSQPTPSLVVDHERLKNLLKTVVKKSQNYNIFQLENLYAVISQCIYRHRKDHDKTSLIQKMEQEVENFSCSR
Test: Binding affinity to human partial length ATAD2A (Q981 to R1108 residues) expressed in bacterial expression system by BROMOscan assay
Conditions: not given

Compound	Kd [µM]
C/C=C/Cn1cc(-c2cc(OC)c(C(=O)N3CCOCC3)cc2OC)c2cc(C)[nH]c2c1=O	> 10
C/C=C/Cn1cc(-c2ccc(C(C)(C)O)cc2OC)c2cc[nH]c2c1=O	> 10

System: KP-4
Test: Cytotoxicity against human KP-4 cells measured after 8 days
Assay type: functional, cell-based
Conditions: KP-4, 192 h

Compound	IC50 [µM]
C/C=C/Cn1cc(-c2cc(OC)c(C(=O)N3CCOCC3)cc2OC)c2cc(C)[nH]c2c1=O	2
C/C=C/Cn1cc(-c2ccc(C(C)(C)O)cc2OC)c2cc[nH]c2c1=O	20

Biological target: Histamine H1 receptor (Homo sapiens) (UniProt P35367)
Sequence (P35367 whole entry): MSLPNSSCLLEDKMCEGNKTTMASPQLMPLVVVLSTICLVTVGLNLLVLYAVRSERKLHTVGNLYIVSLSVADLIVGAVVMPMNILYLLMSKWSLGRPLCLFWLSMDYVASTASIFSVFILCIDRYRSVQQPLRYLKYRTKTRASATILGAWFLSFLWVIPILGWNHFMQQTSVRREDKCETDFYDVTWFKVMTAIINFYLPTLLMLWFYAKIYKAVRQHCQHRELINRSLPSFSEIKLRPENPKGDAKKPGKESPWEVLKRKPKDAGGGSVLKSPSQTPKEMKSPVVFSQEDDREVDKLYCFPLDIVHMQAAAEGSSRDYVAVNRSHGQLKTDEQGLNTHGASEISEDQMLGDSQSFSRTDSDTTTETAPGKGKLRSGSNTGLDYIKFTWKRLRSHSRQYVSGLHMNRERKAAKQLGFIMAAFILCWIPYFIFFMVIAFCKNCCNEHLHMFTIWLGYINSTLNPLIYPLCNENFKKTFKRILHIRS
Test: Displacement of [3H]pyrilamine from human recombinant histamine H1 receptor at 10 uM after 60 mins by scintillation counting analysis relative to control
Conditions: not given

Compound	Activity [%]
C/C=C/Cn1cc(-c2cc(OC)c(C(=O)N3CCOCC3)cc2OC)c2cc(C)[nH]c2c1=O	1
C/C=C/Cn1cc(-c2ccc(C(C)(C)O)cc2OC)c2cc[nH]c2c1=O	1

System: IGROV-1
Test: Cytotoxicity against human IGROV-1 cells measured after 8 days
Assay type: functional, cell-based
Conditions: IGROV-1, 192 h

Compound	IC50 [µM]
C/C=C/Cn1cc(-c2cc(OC)c(C(=O)N3CCOCC3)cc2OC)c2cc(C)[nH]c2c1=O	2
C/C=C/Cn1cc(-c2ccc(C(C)(C)O)cc2OC)c2cc[nH]c2c1=O	20

Biological target: Tyrosine-protein kinase Lck (Homo sapiens) (UniProt P06239)
Sequence (P06239 2-509 limits assumed): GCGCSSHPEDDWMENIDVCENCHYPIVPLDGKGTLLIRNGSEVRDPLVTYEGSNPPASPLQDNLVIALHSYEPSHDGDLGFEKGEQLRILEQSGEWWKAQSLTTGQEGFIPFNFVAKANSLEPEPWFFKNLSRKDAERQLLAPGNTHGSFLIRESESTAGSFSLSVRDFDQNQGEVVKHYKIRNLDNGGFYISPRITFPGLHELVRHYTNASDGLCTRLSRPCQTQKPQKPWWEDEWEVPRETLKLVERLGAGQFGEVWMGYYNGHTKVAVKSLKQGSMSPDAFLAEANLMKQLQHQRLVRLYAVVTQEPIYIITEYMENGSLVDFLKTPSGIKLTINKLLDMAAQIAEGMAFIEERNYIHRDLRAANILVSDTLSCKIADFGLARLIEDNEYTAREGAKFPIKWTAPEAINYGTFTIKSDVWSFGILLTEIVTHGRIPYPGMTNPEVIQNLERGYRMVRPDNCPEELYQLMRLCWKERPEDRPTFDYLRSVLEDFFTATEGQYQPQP
Test: Inhibition of LCK (unknown origin) at 1 uM relative to control
Conditions: not given

Compound	inhibition [%]
C/C=C/Cn1cc(-c2cc(OC)c(C(=O)N3CCOCC3)cc2OC)c2cc(C)[nH]c2c1=O	18.5
C/C=C/Cn1cc(-c2ccc(C(C)(C)O)cc2OC)c2cc[nH]c2c1=O	19.5

System: not listed separately
Test: Cytotoxicity against human EB1 cells measured after 8 days
Assay type: functional, cell-based
Conditions: EB1, 192 h

Compound	IC50 [µM]
C/C=C/Cn1cc(-c2cc(OC)c(C(=O)N3CCOCC3)cc2OC)c2cc(C)[nH]c2c1=O	2
C/C=C/Cn1cc(-c2ccc(C(C)(C)O)cc2OC)c2cc[nH]c2c1=O	20

System: HCC827
Test: Cytotoxicity against human HCC827 cells measured after 8 days
Assay type: functional, cell-based
Conditions: HCC827, 192 h

Compound	IC50 [µM]
C/C=C/Cn1cc(-c2cc(OC)c(C(=O)N3CCOCC3)cc2OC)c2cc(C)[nH]c2c1=O	2
C/C=C/Cn1cc(-c2ccc(C(C)(C)O)cc2OC)c2cc[nH]c2c1=O	20

System: not listed separately
Test: Cytotoxicity against human NCI-H1869 cells measured after 8 days
Assay type: functional, cell-based
Conditions: NCI-H1869, 192 h

Compound	IC50 [µM]
C/C=C/Cn1cc(-c2cc(OC)c(C(=O)N3CCOCC3)cc2OC)c2cc(C)[nH]c2c1=O	2
C/C=C/Cn1cc(-c2ccc(C(C)(C)O)cc2OC)c2cc[nH]c2c1=O	20

System: not listed separately
Test: Cytotoxicity against human OUMS-23 cells measured after 8 days
Assay type: functional, cell-based
Conditions: OUMS-23, 192 h

Compound	IC50 [µM]
C/C=C/Cn1cc(-c2cc(OC)c(C(=O)N3CCOCC3)cc2OC)c2cc(C)[nH]c2c1=O	2
C/C=C/Cn1cc(-c2ccc(C(C)(C)O)cc2OC)c2cc[nH]c2c1=O	20

Biological target: Receptor-interacting serine/threonine-protein kinase 2 (Homo sapiens) (UniProt O43353)
Sequence (O43353 whole entry): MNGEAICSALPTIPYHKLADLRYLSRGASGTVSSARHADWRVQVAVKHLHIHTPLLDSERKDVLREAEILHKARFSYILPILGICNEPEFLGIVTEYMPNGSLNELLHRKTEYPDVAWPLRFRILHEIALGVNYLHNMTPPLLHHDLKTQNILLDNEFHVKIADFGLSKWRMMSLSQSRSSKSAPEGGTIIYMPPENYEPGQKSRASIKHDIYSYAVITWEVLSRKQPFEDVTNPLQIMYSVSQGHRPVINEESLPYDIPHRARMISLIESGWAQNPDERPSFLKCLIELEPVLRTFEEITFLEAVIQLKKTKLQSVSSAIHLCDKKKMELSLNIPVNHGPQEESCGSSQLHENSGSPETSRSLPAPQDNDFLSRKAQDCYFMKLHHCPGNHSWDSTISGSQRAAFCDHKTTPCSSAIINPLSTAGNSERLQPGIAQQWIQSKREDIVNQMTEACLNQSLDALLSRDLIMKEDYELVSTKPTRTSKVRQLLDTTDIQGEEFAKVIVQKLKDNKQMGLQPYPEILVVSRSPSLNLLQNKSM
Test: Inhibition of RIPK2 (unknown origin) at 1 uM relative to control
Conditions: not given

Compound	inhibition [%]
C/C=C/Cn1cc(-c2cc(OC)c(C(=O)N3CCOCC3)cc2OC)c2cc(C)[nH]c2c1=O	-1.5
C/C=C/Cn1cc(-c2ccc(C(C)(C)O)cc2OC)c2cc[nH]c2c1=O	-0.5

Biological target: Mitogen-activated protein kinase 14 (Homo sapiens) (UniProt Q16539)
Sequence (Q16539 whole entry): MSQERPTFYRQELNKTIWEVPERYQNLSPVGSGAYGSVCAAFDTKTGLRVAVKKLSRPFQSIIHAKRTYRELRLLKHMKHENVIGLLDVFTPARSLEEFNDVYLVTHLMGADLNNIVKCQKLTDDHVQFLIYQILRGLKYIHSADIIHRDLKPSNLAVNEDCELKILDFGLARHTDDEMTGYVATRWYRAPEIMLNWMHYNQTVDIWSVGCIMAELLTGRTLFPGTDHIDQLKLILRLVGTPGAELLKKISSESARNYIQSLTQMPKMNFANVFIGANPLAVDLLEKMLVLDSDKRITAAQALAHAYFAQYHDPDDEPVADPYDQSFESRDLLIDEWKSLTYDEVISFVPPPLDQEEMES
Test: Inhibition of p38alpha (unknown origin) at 1 uM relative to control
Conditions: not given

Compound	inhibition [%]
C/C=C/Cn1cc(-c2cc(OC)c(C(=O)N3CCOCC3)cc2OC)c2cc(C)[nH]c2c1=O	3
C/C=C/Cn1cc(-c2ccc(C(C)(C)O)cc2OC)c2cc[nH]c2c1=O	7
